This is an account of results in patent US20240317744A1, “Bicyclic Ureas As Kinase Inhibitors” (Incyte Corporation, priority 2023, published 2024).

Structures are written as SMILES.

In assay [1] the target is T1, catalytic domain (JH1, amino acids 826-1132) of human JAK2 (Homo sapiens, UniProt O60674).
T1 construct: catalytic domain (JH1, amino acids 826-1132) of human JAK2; FLAG (N); biotin (biotinylated); purchased Carna Biosciences 08-445-20N; host or cells: baculovirus expression system
Kind of assay: JAK2 LanthaScreen JH1 Binding Assay. The conditions noted are these: JAK2 JH1 1.5 nM, 50 nM tracer, 2 hours at 25° C.; read-out: JH1 BIND. How it is done:
Example A. JAK2 LanthaScreen JH1 Binding Assay
JAK2 JH1 binding assay utilizes catalytic domain (JH1, amino acids 826-1132) of human JAK2 expressed as N-terminal FLAG-tagged, biotinylated protein in a baculovirus expression system (Carna Biosciences, Product #08-445-20N). The assay was conducted in black 384-well polystyrene plates in a final reaction volume of 20 μL. JAK2 JH1 (1.5 nM) was incubated with compounds (100 nL serially diluted in DMSO) in the presence of 50 nM fluorescent JAK2-JH1 tracer and 0.5 nM Streptavidin-Tb cryptate (Cisbio Part #610SATLB) in assay buffer (50 mM Tris, pH=7.5, 10 mM MgCl2, 0.01% Brij-35, 0.1% BSA, 1 mM EGTA, 5% Glycerol and 5 mM DTT). Non-specific binding was accessed in the presence of 2 mM ATP. After incubation for 2 hours at 25° C., LanthaScreen signals were read on a PHERAstar FS plate reader (BMG LABTECH). Data was analyzed with IDBS XLfit and GraphPad Prism 5.0 software using a four parameter dose response curve to determine IC50 for each compound.
(In TR-FRET formats the signal depends on donor and acceptor labels being close together.)

Assay [2] deals with T2, pseudo-kinase domain (JH2, amino-acids 536-812) of human Wild Type JAK2 (Homo sapiens, UniProt O60674, F794H/W659A/W777A).
T2 construct: pseudo-kinase domain (JH2, amino-acids 536-812 with 3 surface mutations W659A, W777A, F794H); His (C); purchased BPS Bioscience 79463; host or cells: baculovirus expression system
T2 sequence (O60674 536-812 W659A/W777A/F794H): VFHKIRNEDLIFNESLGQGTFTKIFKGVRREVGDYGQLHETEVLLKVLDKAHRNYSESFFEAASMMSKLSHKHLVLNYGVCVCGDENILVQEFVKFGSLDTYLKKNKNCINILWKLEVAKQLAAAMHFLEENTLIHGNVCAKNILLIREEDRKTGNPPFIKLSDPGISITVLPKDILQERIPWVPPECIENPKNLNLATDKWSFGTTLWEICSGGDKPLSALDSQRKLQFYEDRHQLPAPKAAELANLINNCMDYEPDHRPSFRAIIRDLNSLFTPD
Description: JAK2 LanthaScreen JH2-WT Binding Assay. The settings on record: JAK2 JH2-WT 0.145 nM, 50 nM tracer, 1 hour at 25° C.; read-out: JH2 BIND WT. The procedure: Example B. JAK2 LanthaScreen JH2-WT Binding Assay
JAK2 JH2-WT binding assay utilizes pseudo-kinase domain (JH2, amino-acids 536-812 with 3 surface mutations W659A, W777A, F794H) of human Wild Type JAK2 expressed as C-terminal His-Avi-tagged, biotinylated protein in a baculovirus expression system (BPS Bioscience, Catalog #79463). The assay was conducted in black 384-well polystyrene plates in a final reaction volume of 20 μL. JAK2 JH2-WT (0.145 nM) was incubated with compounds (100 nL serially diluted in DMSO) in the presence of 50 nM Fluorescent JAK2-JH2 Tracer (MedChem Express Catalog #HY-102055) and 0.25 nM Streptavidin-Tb cryptate (Cisbio Part #610SATLB) in assay buffer (50 mM Tris, pH=7.5, 10 mM MgCl2, 0.01% Brij-35, 0.1% BSA, 1 mM EGTA, 5% Glycerol and 5 mM DTT). Non-specific binding was accessed in the presence of 2 mM ATP. After incubation for 1 hour at 25° C., LanthaScreen signals were read on a PHERAstar FS plate reader (BMG LABTECH). Data was analyzed with IDBS XLfit and GraphPad Prism 5.0 software using a four parameter dose response curve to determine IC50 for each compound.

Assay [3] has as its target T3, pseudo-kinase domain (JH2, amino-acids 536-812) of human V617F mutant JAK2 (Homo sapiens, UniProt O60674, F794H/V617F/W659A/W777A).
T3 construct: pseudo-kinase domain (JH2, amino-acids 536-812 with 3 surface mutations W659A, W777A, F794H); His (C); purchased BPS Bioscience 79498; host or cells: baculovirus expression system
Kind of assay: JAK2 LanthaScreen JH2-V617F Binding Assay. The settings on record: JAK2 JH2-V617F 0.26 nM, 50 nM tracer, 1 hour at 25° C.; read-out: JH2 BIND V617F. The method, boiled down: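 Competition of compounds with a fluorescent tracer (50 nM) for the biotinylated domain (0.26 nM), detected via streptavidin-Tb (0.25 nM) after 1 h at 25° C in pH 7.5 Tris buffer containing glycerol, BSA and Brij-35. ATP at 2 mM gave background. IC50 by four-parameter fit.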

The target in assay [4] is catalytic domain (JH1, amino acids 808-1132) of human JAK2 (Homo sapiens, UniProt O60674). Description: JAK2 HTRF Enzyme Activity Assay. The conditions noted are these: ATP 30 µM, 60 minutes at 25° C.; read-out: V617F ENZ 30 UM. Format: biochemical.
Chain of catalytic domain (JH1, amino acids 808-1132) of human JAK2 (O60674 808-1132 limits assumed): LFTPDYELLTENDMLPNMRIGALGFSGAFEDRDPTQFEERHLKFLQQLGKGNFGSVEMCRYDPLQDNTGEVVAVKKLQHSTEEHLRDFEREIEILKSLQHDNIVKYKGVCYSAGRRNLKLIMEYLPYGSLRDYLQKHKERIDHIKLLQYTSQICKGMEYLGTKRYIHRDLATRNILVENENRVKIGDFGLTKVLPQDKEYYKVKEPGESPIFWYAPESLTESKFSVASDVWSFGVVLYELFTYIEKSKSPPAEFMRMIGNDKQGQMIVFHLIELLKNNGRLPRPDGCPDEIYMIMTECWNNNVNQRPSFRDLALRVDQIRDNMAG

T3 sequence (O60674 536-812 V617F/W659A/W777A/F794H): as the sequence (O60674 536-812 W659A/W777A/F794H) above, with V82F counted along it
T1 sequence (O60674 826-1132): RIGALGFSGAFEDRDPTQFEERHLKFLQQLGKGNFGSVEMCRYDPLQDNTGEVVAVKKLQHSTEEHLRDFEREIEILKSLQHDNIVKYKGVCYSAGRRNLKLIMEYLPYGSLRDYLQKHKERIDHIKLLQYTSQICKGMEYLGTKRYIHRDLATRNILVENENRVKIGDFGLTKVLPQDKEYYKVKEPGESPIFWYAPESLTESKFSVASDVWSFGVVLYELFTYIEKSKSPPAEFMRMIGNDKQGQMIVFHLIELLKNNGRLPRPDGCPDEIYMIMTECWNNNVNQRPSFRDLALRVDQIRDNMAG

With `COC(=O)N[C@@H]1CC[C@@H](n2c(=O)n(C)c3cnc(Nc4ccc5cc(-c6cnn(C)c6)ccc5n4)cc32)C1` [Example 32, Methyl ((1R,3R)-3-(3-methyl-6-((6-(1-methyl-1H-pyrazol-4-yl)quinolin-2-yl)amino)-2-oxo-2,3-dihydro-1H-imidazo[4,5-c]pyridin-1-yl)cyclopentyl)carbamate], the IC50 was greater than 1000 nM in assay [1], 100 to 500 nM in assay [2], 100 to 500 nM in assay [3] and greater than 1000 nM in assay [4].

Take `Cn1cc(-c2cc(NC(=O)OC3CCC3)cc(Nc3cc4c(cn3)n(C)c(=O)n4C3CCCC3)c2)cn1` [Example 60, Cyclobutyl (3-((1-cyclopentyl-3-methyl-2-oxo-2,3-dihydro-1H-imidazo[4,5-c]pyridin-6-yl)amino)-5-(1-methyl-1H-pyrazol-4-yl)phenyl)carbamate]: the IC50 is greater than 1000 nM in assay [1], 10 to 100 nM in assay [2], 10 to 100 nM in assay [3] and greater than 1000 nM in assay [4].

As to `[2H]C([2H])([2H])n1c(=O)n([C@@H]2CC[C@@H](NC(=O)OC)C2)c2cc(Nc3ccc4c(n3)c(-c3cnn(C(F)(F)F)c3)cn4CC(C)(C)O)ncc21` [Example 110, Methyl ((1R,3R)-3-(6-((1-(2-hydroxy-2-methylpropyl)-3-(1-(trifluoromethyl)-1H-pyrazol-4-yl)-1H-pyrrolo[3,2-b]pyridin-5-yl)amino)-3-(methyl-d3)-2-oxo-2,3-dihydro-1H-imidazo[4,5-c]pyridin-1-yl)cyclopentyl)carbamate], the results for the IC50 in assay [3] and in assay [4] were no more than 10 nM and greater than 1000 nM, respectively.

Turning to `[2H]C1(NC(=O)OC)CC[C@@H](n2c(=O)n(C([2H])([2H])[2H])c3cnc(Nc4cc(C(C)(C)O)c5[nH]cc(-c6cnn(C(F)(F)F)c6)c5n4)cc32)C1` (stereo partly drawn) [Example 130, Methyl ((3R)-3-(6-((7-(2-hydroxypropan-2-yl)-3-(1-(trifluoromethyl)-1H-pyrazol-4-yl)-1H-pyrrolo[3,2-b]pyridin-5-yl)amino)-3-(methyl-d3)-2-oxo-2,3-dihydro-1H-imidazo[4,5-c]pyridin-1-yl)cyclopentyl-1-d)carbamate], the IC50 is no more than 10 nM in assay [3] and greater than 1000 nM in assay [4].

For the compound `[2H]C([2H])([2H])n1c(=O)n([C@@H]2CC[C@@]([2H])(NC(=O)OC)C2)c2cc(Nc3cc(C(C)(C)O)c4nc(C)n(-c5cnn(C(F)F)c5)c4n3)ncc21` [Example 169, Methyl ((1R,3R)-3-(6-((3-(1-(difluoromethyl)-1H-pyrazol-4-yl)-7-(2-hydroxypropan-2-yl)-2-methyl-3H-imidazo[4,5-b]pyridin-5-yl)amino)-3-(methyl-d3)-2-oxo-2,3-dihydro-1H-imidazo[4,5-c]pyridin-1-yl)cyclopentyl-1-d)carbamate], the IC50 in assay [3] was no more than 10 nM; in assay [4], greater than 1000 nM.

`[2H]C1(NC(=O)OC)CC[C@@H](n2c(=O)n(C([2H])([2H])[2H])c3cnc(Nc4ccc5nn(CC6(C#N)CC6)c(-c6cnn(C(F)(F)F)c6)c5n4)cc32)C1` (stereo partly drawn) [Example 134, Methyl ((3R)-3-(6-((2-((1-cyanocyclopropyl)methyl)-3-(1-(trifluoromethyl)-1H-pyrazol-4-yl)-2H-pyrazolo[4,3-b]pyridin-5-yl)amino)-3-(methyl-d3)-2-oxo-2,3-dihydro-1H-imidazo[4,5-c]pyridin-1-yl)cyclopentyl-1-d)carbamate]: the values for the IC50 in assay [3] and in assay [4] were no more than 10 nM and greater than 1000 nM, respectively.

As to `[2H]C([2H])([2H])n1c(=O)n([C@@H]2CC[C@]([2H])(NC(=O)OC)C2)c2cc(Nc3cc(-c4cnccc4C(F)(F)F)cc(-c4ncc(C(C)(C)O)s4)n3)ncc21` [Example 165, Methyl ((1S,3R)-3-(6-((6′-(5-(2-hydroxypropan-2-yl)thiazol-2-yl)-4-(trifluoromethyl)-[3,4′-bipyridin]-2′-yl)amino)-3-(methyl-d3)-2-oxo-2,3-dihydro-1H-imidazo[4,5-c]pyridin-1-yl)cyclopentyl-1-d)carbamate], the values for the IC50 in assay [3] and in assay [4] were no more than 10 nM and greater than 1000 nM, respectively.

As to `[2H]C([2H])([2H])n1c(=O)n([C@@H]2CC[C@@]([2H])(NC(=O)OC)C2)c2cc(Nc3cc(C(C)(C)O)cc(-c4ncc(C(O)(C(F)(F)F)C(F)(F)F)s4)n3)ncc21` [Example 147, Methyl ((1R,3R)-3-(6-((6-(5-(1,1,1,3,3,3-hexafluoro-2-hydroxypropan-2-yl)thiazol-2-yl)-4-(2-hydroxypropan-2-yl)pyridin-2-yl)amino)-3-(methyl-d3)-2-oxo-2,3-dihydro-1H-imidazo[4,5-c]pyridin-1-yl)cyclopentyl-1-d)carbamate], the IC50 in assay [3] was no more than 10 nM; in assay [4], greater than 1000 nM.

`[2H]C([2H])([2H])n1c(=O)n([C@H]2CC[C@@](C)(NC(=O)C3CC3)CC2)c2cc(Nc3cc(C(=O)N4CCOCC4)c4nn(C)c(-c5cnn(C(F)(F)F)c5)c4n3)ncc21` [Example 127, N-((1s,4s)-1-Methyl-4-(3-(methyl-d3)-6-((2-methyl-7-(morpholine-4-carbonyl)-3-(1-(trifluoromethyl)-1H-pyrazol-4-yl)-2H-pyrazolo[4,3-b]pyridin-5-yl)amino)-2-oxo-2,3-dihydro-1H-imidazo[4,5-c]pyridin-1-yl)cyclohexyl)cyclopropanecarboxamide]: the IC50 is no more than 10 nM in assay [3] and greater than 1000 nM in assay [4].

As to `[2H]C([2H])([2H])n1c(=O)n([C@@H]2CC[C@@]([2H])(NC(=O)OC)C2)c2cc(Nc3cc(C4CCN(C)CC4)cc(-c4ncc(C(C)(C)O)s4)n3)ncc21` [Example 166, Methyl ((1R,3R)-3-(6-((6-(5-(2-hydroxypropan-2-yl)thiazol-2-yl)-4-(1-methylpiperidin-4-yl)pyridin-2-yl)amino)-3-(methyl-d3)-2-oxo-2,3-dihydro-1H-imidazo[4,5-c]pyridin-1-yl)cyclopentyl-1-d)carbamate], the IC50 in assay [3] is no more than 10 nM; in assay [4], greater than 1000 nM.

For `[2H]C([2H])([2H])n1c(=O)n([C@@H]2CC[C@]([2H])(NC(=O)OC)C2)c2cc(Nc3cc(C(C)(C)O)cc(-c4ncc(C(F)(F)F)s4)n3)ncc21` [Example 159, Methyl ((1S,3R)-3-(6-((4-(2-hydroxypropan-2-yl)-6-(5-(trifluoromethyl)thiazol-2-yl)pyridin-2-yl)amino)-3-(methyl-d3)-2-oxo-2,3-dihydro-1H-imidazo[4,5-c]pyridin-1-yl)cyclopentyl-1-d)carbamate], the values for the IC50 in assay [3] and in assay [4] were no more than 10 nM and greater than 1000 nM, respectively.

Take `[2H]C([2H])([2H])n1c(=O)n(C23CCC(C(=O)NC4CC4)(CC2)CC3)c2cc(Nc3cc(C(C)(C)O)cc(-c4ncc(C(F)(F)F)s4)n3)ncc21` [Example 138, N-Cyclopropyl-4-(6-((4-(2-hydroxypropan-2-yl)-6-(5-(trifluoromethyl)thiazol-2-yl)pyridin-2-yl)amino)-3-(methyl-d3)-2-oxo-2,3-dihydro-1H-imidazo[4,5-c]pyridin-1-yl)bicyclo[2.2.2]octane-1-carboxamide]: the results for the IC50 in assay [3] and in assay [4] were no more than 10 nM and greater than 1000 nM, respectively.
